Data from patent US20230372498A1, “PLK1 SELECTIVE DEGRADATION INDUCING COMPOUND” (UPPTHERA, priority 2020, published 2023).
Like-named read-outs stand apart in the source and are kept apart here.

Target: T1, PLK1 (Homo sapiens, UniProt P53350)
T1 construct: endogenous in cells; host or cells: HeLa
Test: PLK1 protein degradation in HeLa cells, Western blotting (PLK1/GAPDH ratio)
Assay type: cell-based
Settings: 6 hours compound incubation; for Dmax: thymidine block and release, 10 points three-fold from 3 μM, PLK1 to GAPDH ratio; for DC50: measured only if the grade of Dmax is A or B
How it was run: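 Thymidine-synchronised HeLa cells (2 mM, 24 h) released 4 h into complete medium, then treated 6 h with compound in 10-point 3-fold dilutions from 3 μM. RIPA lysates (15 μg protein) run on SDS-PAGE; PLK1 Western blot normalised to GAPDH.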

T1 sequence (P53350 whole entry): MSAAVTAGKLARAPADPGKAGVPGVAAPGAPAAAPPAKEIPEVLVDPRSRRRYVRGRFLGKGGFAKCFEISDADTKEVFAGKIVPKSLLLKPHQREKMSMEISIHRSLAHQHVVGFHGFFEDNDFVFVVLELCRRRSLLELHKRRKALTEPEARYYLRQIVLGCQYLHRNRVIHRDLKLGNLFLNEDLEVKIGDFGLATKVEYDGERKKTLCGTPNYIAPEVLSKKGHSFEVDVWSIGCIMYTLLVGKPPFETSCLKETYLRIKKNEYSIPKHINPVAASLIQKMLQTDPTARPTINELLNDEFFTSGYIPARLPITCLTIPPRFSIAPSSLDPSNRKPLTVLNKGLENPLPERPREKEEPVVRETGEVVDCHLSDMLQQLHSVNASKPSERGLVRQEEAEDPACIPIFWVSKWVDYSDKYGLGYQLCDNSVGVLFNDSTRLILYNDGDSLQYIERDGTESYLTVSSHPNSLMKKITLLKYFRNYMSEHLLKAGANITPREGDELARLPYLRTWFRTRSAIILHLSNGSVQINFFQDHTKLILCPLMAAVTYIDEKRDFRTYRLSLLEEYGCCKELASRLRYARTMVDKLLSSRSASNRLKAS

SMILES	Dmax (read-out: Dmax)	DC50	Dmax
COc1cc(C(=O)NCCCCCCCc2cccc3c2CN(C2CCC(=O)NC2=O)C3=O)c(F)cc1Nc1ncc2c(n1)N(C1CCCC1)CC(F)(F)C(=O)N2C (centres unmarked) [Example 166, 4-((9-cyclopentyl-7,7-difluoro-5-methyl-6-oxo-6,7,8,9-tetrahydro-5H-pyrimido[4,5-b][1,4]diazepin-2-yl)amino)-N-(7-(2-(2,6-dioxopiperidin-3-yl)-1-oxoisoindolin-4-yl)heptyl)-2-fluoro-5-methoxybenzamide]	60 to 80%	–	–
COc1cc(C(=O)NC2CCN(Cc3ccc(OCCOCCOCCNc4cccc5c4C(=O)N(C4CCC(=O)NC4=O)C5=O)cc3)CC2)c(F)cc1Nc1ncc2c(n1)N(C1CCCC1)CC(F)(F)C(=O)N2C (centres unmarked) [Compound 41, 4-((9-cyclopentyl-7,7-difluoro-5-methyl-6-oxo-6,7,8,9-tetrahydro-5H-pyrimido[4,5-b][1,4]diazepin-2-yl)amino)-N-(1-(4-(2-(2-(2-((2-(2,6-dioxopiperidin-3-yl)-1,3-dioxoisoindolin-4-yl)amino)ethoxy)ethoxy)ethoxy)benzyl)piperidin-4-yl)-2-fluoro-5-methoxybenzamide]	≥ 80%	≤ 50 nM	–
COc1cc(C(=O)NC2CCN(C(=O)CCOCCNc3cccc4c3C(=O)N(C3CCC(=O)NC3=O)C4=O)CC2)c(F)cc1Nc1ncc2c(n1)N(C1CCCC1)CC(F)(F)C(=O)N2C (centres unmarked) [Compound 32, 4-((9-cyclopentyl-7,7-difluoro-5-methyl-6-oxo-6,7,8,9-tetrahydro-5H-pyrimido[4,5-b][1,4]diazepin-2-yl)amino)-N-(1-(3-(2-((2-(2,6-dioxopiperidin-3-yl)-1,3-dioxoisoindolin-4-yl)amino)ethoxy)propanoyl)piperidin-4-yl)-2-fluoro-5-methoxybenzamide]	≥ 80%	≤ 50 nM	–
COc1cc(C(=O)NC2CCN(CCOCCOCCOCC(=O)N[C@H](C(=O)N3C[C@H](O)C[C@H]3C(=O)NCc3ccc(-c4scnc4C)cc3)C(C)(C)C)CC2)c(F)cc1Nc1ncc2c(n1)N(C1CCCC1)CC(F)(F)C(=O)N2C [Compound 81]	< 60%	–	–
COc1cc(C(=O)N[C@H]2CCN(C(=O)CCCC(=O)N3CCN(c4cccc5c4C(=O)N(C4CCC(=O)NC4=O)C5=O)CC3)C2)c(F)cc1Nc1ncc2c(n1)N(C1CCCC1)CC(F)(F)C(=O)N2C (stereo partly drawn) [Compound 143, 4-((9-cyclopentyl-7,7-difluoro-5-methyl-6-oxo-6,7,8,9-tetrahydro-5H-pyrimido[4,5-b][1,4]diazepin-2-yl)amino)-N-((3S)-1-(5-(4-(2-(2,6-dioxopiperidin-3-yl)-1,3-dioxoisoindolin-4-yl)piperazin-1-yl)-5-oxopentanoyl)pyrrolidin-3-yl)-2-fluoro-5-methoxybenzamide]	60 to 80%	≤ 500 nM	–
COc1cc(C(=O)NCCCOCCCOCCNc2cccc3c2C(=O)N(C2CCC(=O)NC2=O)C3=O)c(F)cc1Nc1ncc2c(n1)N(C1CCCC1)CC(F)(F)C(=O)N2C (centres unmarked) [Compound 157, 4-((9-cyclopentyl-7,7-difluoro-5-methyl-6-oxo-6,7,8,9-tetrahydro-5H-pyrimido[4,5-b][1,4]diazepin-2-yl)amino)-N-(3-(3-(2-((2-(2,6-dioxopiperidin-3-yl)-1,3-dioxoisoindolin-4-yl)amino)ethoxy)propoxy)propyl)-2-fluoro-5-methoxybenzamide]	≥ 80%	≤ 50 nM	–
COc1cc(C(=O)NC2CCN(C(=O)CCCCCNc3cccc4c3C(=O)N(C3CCC(=O)NC3=O)C4=O)C2)c(F)cc1Nc1ncc2c(n1)N(C1CCCC1)CC(F)(F)C(=O)N2C (centres unmarked) [Compound 118, 4-((9-cyclopentyl-7,7-difluoro-5-methyl-6-oxo-6,7,8,9-tetrahydro-5H-pyrimido[4,5-b][1,4]diazepin-2-yl)amino)-N-(1-(6-((2-(2,6-dioxopiperidin-3-yl)-1,3-dioxoisoindolin-4-yl)amino)hexanoyl)pyrrolidin-3-yl)-2-fluoro-5-methoxybenzamide]	≥ 80%	≤ 50 nM	–
COc1cc(C(=O)NC2CCN(CCOCCOCCOCCOCCNc3cccc4nnn(C5CCC(=O)NC5=O)c(=O)c34)CC2)c(F)cc1Nc1ncc2c(n1)N(C1CCCC1)CC(F)(F)C(=O)N2C (centres unmarked) [Compound 78, 4-((9-cyclopentyl-7,7-difluoro-5-methyl-6-oxo-6,7,8,9-tetrahydro-5H-pyrimido[4,5-b][1,4]diazepin-2-yl)amino)-N-(1-(14-((3-(2,6-dioxopiperidin-3-yl)-4-oxo-3,4-dihydrobenzo[d][1,2,3]triazin-5-yl)amino)-3,6,9,12-tetraoxatetradecyl)piperidin-4-yl)-2-fluoro-5-methoxybenzamide]	≥ 80%	≤ 50 nM	–
COc1cc(C(=O)NCC2CCCCN2CCOCCNc2cccc3c2C(=O)N(C2CCC(=O)NC2=O)C3=O)c(F)cc1Nc1ncc2c(n1)N(C1CCCC1)CC(F)(F)C(=O)N2C (centres unmarked) [Compound 126, 4-((9-cyclopentyl-7,7-difluoro-5-methyl-6-oxo-6,7,8,9-tetrahydro-5H-pyrimido[4,5-b][1,4]diazepin-2-yl)amino)-N-((1-(2-(2-((2-(2,6-dioxopiperidin-3-yl)-1,3-dioxoisoindolin-4-yl)amino)ethoxy)ethyl)piperidin-2-yl)methyl)-2-fluoro-5-methoxybenzamide]	60 to 80%	≤ 500 nM	–
COc1cc(C(=O)NC2CCN(CCOCCOCCOCCOCCOCCNc3cccc4c3C(=O)N(C3CCC(=O)NC3=O)C4=O)CC2)c(F)cc1Nc1ncc2c(n1)N(C1CCCC1)CC(F)(F)C(=O)N2C (centres unmarked) [Compound 5, 4-((9-cyclopentyl-7,7-difluoro-5-methyl-6-oxo-6,7,8,9-tetrahydro-5H-pyrimido[4,5-b][1,4]diazepin-2-yl)amino)-N-(1-(17-((2-(2,6-dioxopiperidin-3-yl)-1,3-dioxoisoindolin-4-yl)amino)-3,6,9,12,15-pentaoxaheptadecyl)piperidin-4-yl)-2-fluoro-5-methoxybenzamide]	≥ 80%	≤ 50 nM	–
COc1cc(C(=O)NCCOCCCNc2cccc3c2C(=O)N(C2CCC(=O)NC2=O)C3=O)c(F)cc1Nc1ncc2c(n1)N(C1CCCC1)CC(F)(F)C(=O)N2C (centres unmarked) [Compound 155, 4-((9-cyclopentyl-7,7-difluoro-5-methyl-6-oxo-6,7,8,9-tetrahydro-5H-pyrimido[4,5-b][1,4]diazepin-2-yl)amino)-N-(2-(3-((2-(2,6-dioxopiperidin-3-yl)-1,3-dioxoisoindolin-4-yl)amino)propoxy)ethyl)-2-fluoro-5-methoxybenzamide]	60 to 80%	≤ 500 nM	–
COc1cc(C(=O)NC2CCN(CCOCCOCCOCCOCCOCCOCCOCCNc3cccc4c3C(=O)N(C3CCC(=O)NC3=O)C4=O)CC2)c(F)cc1Nc1ncc2c(n1)N(C1CCCC1)CC(F)(F)C(=O)N2C (centres unmarked) [Example 172, 4-((9-cyclopentyl-7,7-difluoro-5-methyl-6-oxo-6,7,8,9-tetrahydro-5H-pyrimido[4,5-b][1,4]diazepin-2-yl)amino)-N-(1-(23-((2-(2,6-dioxopiperidin-3-yl)-1,3-dioxoisoindolin-4-yl)amino)-3,6,9,12,15,18,21-heptaoxatricosyl)piperidin-4-yl)-2-fluoro-5-methoxybenzamide]	≥ 80%	–	–
COc1cc(C(=O)N[C@H]2CCN(C(=O)CCCCCNc3cccc4c3C(=O)N(C3CCC(=O)NC3=O)C4=O)C2)c(F)cc1Nc1ncc2c(n1)N(C1CCCC1)CC(F)(F)C(=O)N2C (stereo partly drawn) [Compound 119, 4-((9-cyclopentyl-7,7-difluoro-5-methyl-6-oxo-6,7,8,9-tetrahydro-5H-pyrimido[4,5-b][1,4]diazepin-2-yl)amino)-N-((3S)-1-(6-((2-(2,6-dioxopiperidin-3-yl)-1,3-dioxoisoindolin-4-yl)amino)hexanoyl)pyrrolidin-3-yl)-2-fluoro-5-methoxybenzamide]	≥ 80%	≤ 50 nM	–
COc1cc(C(=O)NCCCCCCc2cccc3c2CN(C2CCC(=O)NC2=O)C3=O)c(F)cc1Nc1ncc2c(n1)N(C1CCCC1)CC(F)(F)C(=O)N2C (centres unmarked) [Compound 164, 4-((9-cyclopentyl-7,7-difluoro-5-methyl-6-oxo-6,7,8,9-tetrahydro-5H-pyrimido[4,5-b][1,4]diazepin-2-yl)amino)-N-(6-(2-(2,6-dioxopiperidin-3-yl)-1-oxoisoindolin-4-yl)hexyl)-2-fluoro-5-methoxybenzamide]	60 to 80%	≤ 500 nM	–
COc1cc(C(=O)NC2CCN(C(=O)COCCNc3cccc4c3C(=O)N(C3CCC(=O)NC3=O)C4=O)CC2)c(F)cc1Nc1ncc2c(n1)N(C1CCCC1)CC(F)(F)C(=O)N2C (centres unmarked) [Compound 31, 4-((9-cyclopentyl-7,7-difluoro-5-methyl-6-oxo-6,7,8,9-tetrahydro-5H-pyrimido[4,5-b][1,4]diazepin-2-yl)amino)-N-(1-(2-(2-((2-(2,6-dioxopiperidin-3-yl)-1,3-dioxoisoindolin-4-yl)amino)ethoxy)acetyl)piperidin-4-yl)-2-fluoro-5-methoxybenzamide]	< 60%	–	–
COc1cc(C(=O)NC2CCN(CCOCCOCCOCCOCCOCC(=O)N[C@H](C(=O)N3C[C@H](O)C[C@H]3C(=O)NCc3ccc(-c4scnc4C)cc3)C(C)(C)C)CC2)c(F)cc1Nc1ncc2c(n1)N(C1CCCC1)CC(F)(F)C(=O)N2C [Example 83]	–	–	C (C: less than 60%)
COc1cc(C(=O)NC2CCN(CCCCOCCCOCCOCCNc3cccc4c3C(=O)N(C3CCC(=O)NC3=O)C4=O)CC2)c(F)cc1Nc1ncc2c(n1)N(C1CCCC1)CC(F)(F)C(=O)N2C (centres unmarked) [Compound 23, 4-((9-cyclopentyl-7,7-difluoro-5-methyl-6-oxo-6,7,8,9-tetrahydro-5H-pyrimido[4,5-b][1,4]diazepin-2-yl)amino)-N-(1-(4-(3-(2-(2-((2-(2,6-dioxopiperidin-3-yl)-1,3-dioxoisoindolin-4-yl)amino)ethoxy)ethoxy)propoxy)butyl)piperidin-4-yl)-2-fluoro-5-methoxybenzamide]	≥ 80%	≤ 50 nM	–
